Consider one compound from US12678509B2, “Inhibitor of apoptosis (IAP) protein antagonists” (Sanford Burnham Prebys Medical Discovery Institute, priority 2019, dated 2026).

What all share (test): Cell viability in patient derived AML samples (CellTiterGlo, 72 h)
Holding throughout (format): cell-based, human
For orientation: In ATP-based viability assays light output follows the ATP content of the culture.

One test has as its system AML-SH-065. In a few lines:
(§1)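 Ficoll-purified peripheral blood mononuclear cells from AML patients, kept in mTeSR1 with supplements, were incubated 72 h with serially diluted IAP inhibitors in triplicate. Viability by CellTiterGlo luminescence normalised to DMSO controls; IC50 from four-parameter variable-slope fit.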

The test system of another test is AML-SH-075. In a few lines:
as §1

A further test concerns AML-SH-074. In a few lines: as §1

Structures are written as SMILES.

Broadly, the IC50 is the concentration that gives 50% inhibition. For the compound `CN[C@@H](C)C(=O)N[C@H]1CCS[C@H]2CC(C)(C)[C@@H](C(=O)N[C@H]3c4ccccc4C[C@H]3OCC#CC#CCO[C@@H]3Cc4ccccc4[C@@H]3NC(=O)[C@H]3N4C(=O)[C@@H](NC(=O)[C@H](C)NC)CCS[C@H]4CC3(C)C)N2C1=O` [Compound 18a, (2S)-1-{[(4S,7S,9aS)-74{(1S,2R)-2-[(6-{[(1S,2R)-1-({[(4S,7S,9aS)-8,8-Dimethyl-4-{[(2S)-2-(methylammonio)propanoyl]amino}-5-oxooctahydropyrrolo[2,1-b][1,3]thiazepin-7-yl]carbonyl}amino)-2,3-dihydro-1H-inden-2-yl]oxy}hexa-2,4-diyn-1-yl)oxy]-2,3-dihydro-1H-inden-1-yl}carbamoyl)-8,8-dimethyl-5-oxooctahydropyrrolo[2,1-b][1,3]thiazepinyl]amino}-N-methyl-1-oxopropan-2-ammonium dichloride], the 50% inhibitory concentration (IC50) was less than 10 nM with AML-SH-065 (Homo sapiens, 72 h, read-out: AML-SH-065 IC50); 10 to 100 nM in the test on AML-SH-075 (Homo sapiens, 72 h, read-out: AML-SH-075 IC50); 100 to 1000 nM with AML-SH-074 (Homo sapiens, 72 h, read-out: AML-SH-074 IC50). For the same compound, the “AML-SH-065 Efficacy” value with AML-SH-065 (patient derived AML sample AML-SH-065, 72 h, cell viability at max. concentration) is on record as “I (I < 10%)”. Also, the “AML-SH-075 Efficacy” value in the test with AML-SH-075 (patient derived AML sample AML-SH-075, 72 h, cell viability at max. concentration) was “I (I < 10%)”. The “AML-SH-074 Efficacy” value in the test on AML-SH-074 (patient derived AML sample AML-SH-074, 72 h, cell viability at max. concentration) was “I (I < 10%)”.
